Data on 18 compounds can be found in US9937186B2, “Sulfonamides derived from tricyclyl-2-aminocycloalkanols as anticancer agents” (ICAHN SCHOOL OF MEDICINE AT MOUNT SINAI, priority 2014, dated 2018).

The test system of one assay is H1650 lung cancer cells. Description: Cell viability assay (MTT), H1650 lung cancer cells. The conditions noted are these: H1650 cells. It is filed as cell-based. Here is the method: Cell Viability Assays (IC50 Determination)
Cell viability assays were performed according to Denizot, F. and R. Lang, Journal of Immunological Methods, 1986. 89(22): p. 271-277. H1650 lung cancer cells were plated at 150,000 cells per well in a 12 well plate. Twenty-four hours after plating, cells were treated as described with increasing concentrations of drug and control. Forty-eight hours after drug treatment, cells were treated with 100 μL of 3-(4,5-Dimethylthiazol-2-yl)-2,5-diphenyltetrazolium bromide (MTT) and incubated for 2 hours at 37 C. The MTT solution was subsequently replaced with 300 μL of n-propyl alcohol and re-aliquoted to a 96 well plate. Spectrophotometric analysis of each solution was performed using a 96 well plate reader at 600 nm in triplicate.
Take `N#Cc1ccc2c(c1)c1cc(C#N)ccc1n2C1CCC[C@@H](NS(=O)(=O)c2ccc(OC(F)(F)F)cc2)[C@@H]1O` (mixture of isomers) [Example 26]: the “H1650 GI50” value was “Weak”.

The same assay, now with this note: Homo sapiens, NCI-H1650; H1650 cells.
The compound `O=S(=O)(N[C@@H]1CCCC(N2c3ccccc3COc3ccccc32)[C@H]1O)c1ccc(OC(F)(F)F)cc1` (mixture of isomers) [Example 2, N-((1R,2R,3S)-rel-3-(dibenzo[b,e][1,4]oxazepin-5(11H)-yl)-2-hydroxycyclohexyl)-4-(trifluoromethoxy)benzenesulfonamide] showed a GI50 of 20 µM.

Compound `O=S(=O)(N[C@@H]1CCCC(N2c3ccccc3Oc3ccccc32)[C@H]1O)c1ccc(SC(F)(F)F)cc1` (mixture of isomers) [Example 16] registered a GI50 of 10 µM.

On to `O=S(=O)(N[C@@H]1CCCC(N2c3ccccc3Oc3ccccc32)[C@H]1O)c1ccc(OC(F)(F)F)cc1Cl` (mixture of isomers) [Example 17], for which the GI50 worked out at 15 µM.

As for `O=S(=O)(N[C@@H]1CCCC(N2c3ccccc3Oc3ccccc32)[C@H]1O)c1ccc(CC(F)(F)F)cc1` (mixture of isomers) [Example 18], the 50% growth inhibitory concentration (GI50) stood at 15 µM.

Turning to `O=S(=O)(N[C@@H]1CCCC(N2c3ccccc3Oc3ccccc32)[C@H]1O)c1ccc(C(F)(F)C(F)(F)F)cc1` (mixture of isomers) [Example 19], the GI50 stood at 10 µM.

Regarding `O=S(=O)(N[C@@H]1CCCC(N2c3ccccc3Oc3ccccc32)[C@H]1O)c1ccc(OC(F)F)cc1` (mixture of isomers) [Example 20], halving of growth (GI50) required 25 µM.

`O=S(=O)(N[C@@H]1CCCC(N2c3ccccc3Oc3ccccc32)[C@H]1O)c1ccc(OC(F)(F)F)c(Cl)c1` (mixture of isomers) [Example 21] had a GI50 of 15 µM.

`O=S(=O)(N[C@@H]1CCCC(n2c3ccc(Cl)cc3c3cc(Cl)ccc32)[C@H]1O)c1ccc(OC(F)(F)F)cc1` (mixture of isomers) [Example 22] gave a GI50 of 5 µM.

The compound `O=S(=O)(N[C@@H]1CCCC(n2c3ccc(Cl)cc3c3cc(Cl)ccc32)[C@H]1O)c1ccc(Cl)cc1` (mixture of isomers) [Example 23] came in with a GI50 of 5 µM.

Take `O=S(=O)(N[C@@H]1CCCC(n2c3ccc(Br)cc3c3cc(Br)ccc32)[C@H]1O)c1ccc(OC(F)(F)F)cc1` (mixture of isomers) [Example 24]: the GI50 worked out at 5 µM.

`O=S(=O)(N[C@@H]1CCCC(n2c3ccc(Br)cc3c3cc(Br)ccc32)[C@H]1O)c1ccc(Cl)cc1` (mixture of isomers) [Example 25] registered a GI50 of 15 µM.

With `N#Cc1ccc2c(c1)c1cc(Br)ccc1n2C1CCC[C@@H](NS(=O)(=O)c2ccc(OC(F)(F)F)cc2)[C@@H]1O` (mixture of isomers) [Example 27], the GI50 turned out to be 5 µM.

Compound `N#Cc1ccc2c(c1)c1ccccc1n2C1CCC[C@@H](NS(=O)(=O)c2ccc(OC(F)(F)F)cc2)[C@@H]1O` (mixture of isomers) [Example 28] showed a concentration for 50% growth inhibition (GI50) of 10 µM.

In turn, `COC(=O)c1ccc2c(c1)c1ccccc1n2C1CCC[C@@H](NS(=O)(=O)c2ccc(OC(F)(F)F)cc2)[C@@H]1O` (mixture of isomers) [Example 29] had a GI50 of 15 µM.

In turn, `O=S(=O)(N[C@@H]1CCCC(n2c3ccccc3c3cc(Br)ccc32)[C@H]1O)c1ccc(OC(F)(F)F)cc1` (mixture of isomers) [Example 30] gave a GI50 of 5 µM.

Consider `O=S(=O)(N[C@@H]1CCCC(n2c3ccccc3c3ccccc32)[C@H]1O)c1ccc(Cl)cc1` (relative stereo) [Example 4, N-((1S,2S,3R)-rel-3-(9H-carbazol-9-yl)-2-hydroxycyclohexyl)-4-chlorobenzenesulfonamide], for which the GI50 came to 15 µM.

As for `N#Cc1ccc(S(=O)(=O)N[C@@H]2CCCC(n3c4ccccc4c4ccccc43)[C@H]2O)cc1` (relative stereo) [Example 5, N-((1S,2S,3R)-rel-3-(9H-carbazol-9-yl)-2-hydroxycyclohexyl)-4-cyanobenzenesulfonamide], it took 20 µM to inhibit growth by half (GI50).

The same assay, now with this note: Homo sapiens, NCI-H1650; H1650 lung cancer cells, 48 h drug treatment, MTT.
Regarding `O=S(=O)(N[C@@H]1CCCC(N2c3ccccc3COc3ccccc32)[C@H]1O)c1ccc(OC(F)(F)F)cc1` (mixture of isomers) [Example 2, N-((1R,2R,3S)-rel-3-(dibenzo[b,e][1,4]oxazepin-5(11H)-yl)-2-hydroxycyclohexyl)-4-(trifluoromethoxy)benzenesulfonamide], the IC50 came out at 20 µM.

As to `O=S(=O)(N[C@@H]1CCCC(n2c3ccccc3c3ccccc32)[C@H]1O)c1ccc(Cl)cc1` (relative stereo) [Example 4, N-((1S,2S,3R)-rel-3-(9H-carbazol-9-yl)-2-hydroxycyclohexyl)-4-chlorobenzenesulfonamide], the IC50 stood at 15 µM.

`N#Cc1ccc(S(=O)(=O)N[C@@H]2CCCC(n3c4ccccc4c4ccccc43)[C@H]2O)cc1` (relative stereo) [Example 5, N-((1S,2S,3R)-rel-3-(9H-carbazol-9-yl)-2-hydroxycyclohexyl)-4-cyanobenzenesulfonamide] returned an IC50 of 20 µM.

Usually GI50 stands for the concentration at which growth is held to half of that of the control. High values mean less potent growth inhibition, low ones more potent growth inhibition. The IC50 is the point on the concentration scale where inhibition reaches its midpoint. Low values mean higher potency, high ones lower potency.
